Results from the kinase profiling compilation of Christmann-Franck et al. (2016).

What was measured:
Assay in all cases: radiometric filter-binding kinase assay
AURKB (human) = AURKB (human) (UniProt Q96GD4)
BTK (human) = BTK (human) (UniProt Q06187)
CDK2 CCNA2 (human) = CDK2 CCNA2 (human) (UniProt P20248+P24941)
CDK9 CCNT1 (human) = CDK9 CCNT1 (human) (UniProt P50750+O60563)
CSNK1D (human) = CSNK1D (human) (UniProt P48730)
CaMK1 (human) = CaMK1 (human) (UniProt Q14012)
EPHA2 (human) = EPHA2 (human) (UniProt P29317)
EPHA4 (human) = EPHA4 (human) (UniProt P54764)
EPHB3 (human) = EPHB3 (human) (UniProt P54753); settings: compound 10.0 µM
HIPK2 (human) = HIPK2 (human) (UniProt Q9H2X6)
IRAK1 (human) = IRAK1 (human) (UniProt P51617)
IRAK4 (human) = IRAK4 (human) (UniProt Q9NWZ3)
LCK (mouse) = settings: accession and sequence are those of the human protein
MAP3K1 (human) = MAP3K1 (human) (UniProt Q13233)
MAP3K5 (human) = MAP3K5 (human) (UniProt Q99683); settings: compound 10.0 µM
MAP3K9 (human) = MAP3K9 (human) (UniProt P80192)
MAPK1 (human) = MAPK1 (human) (UniProt P28482)
MAPK11 (human) = MAPK11 (human) (UniProt Q15759)
MAPK9 (human) = MAPK9 (human) (UniProt P45984)
MARK1 (human) = MARK1 (human) (UniProt Q9P0L2)
MARK2 (human) = MARK2 (human) (UniProt Q7KZI7)
MELK (human) = MELK (human) (UniProt Q14680)
NUAK1 (human) = NUAK1 (human) (UniProt O60285)
[1] = test system: PAK2 (human), Q13177 [T402E]
PRKAA1 or PRKAA2 (rat) = settings: compound 1.0 µM; accession and sequence are those of the human protein
SIK3 (human) = SIK3 (human) (UniProt Q9Y2K2)
STK16 (human) = STK16 (human) (UniProt O75716)
STK24 (human) = STK24 (human) (UniProt Q9Y6E0); settings: compound 1.0 µM
STK33 (human) = STK33 (human) (UniProt Q9BYT3)
TSSK1B (human) = TSSK1B (human) (UniProt Q9BXA7)
TTK (human) = TTK (human) (UniProt P33981)
ULK2 (human) = ULK2 (human) (UniProt Q8IYT8)
ZAP70 (human) = ZAP70 (human) (UniProt P43403)

Sequence of MARK1 (human) (Q9P0L2 whole entry, looked up): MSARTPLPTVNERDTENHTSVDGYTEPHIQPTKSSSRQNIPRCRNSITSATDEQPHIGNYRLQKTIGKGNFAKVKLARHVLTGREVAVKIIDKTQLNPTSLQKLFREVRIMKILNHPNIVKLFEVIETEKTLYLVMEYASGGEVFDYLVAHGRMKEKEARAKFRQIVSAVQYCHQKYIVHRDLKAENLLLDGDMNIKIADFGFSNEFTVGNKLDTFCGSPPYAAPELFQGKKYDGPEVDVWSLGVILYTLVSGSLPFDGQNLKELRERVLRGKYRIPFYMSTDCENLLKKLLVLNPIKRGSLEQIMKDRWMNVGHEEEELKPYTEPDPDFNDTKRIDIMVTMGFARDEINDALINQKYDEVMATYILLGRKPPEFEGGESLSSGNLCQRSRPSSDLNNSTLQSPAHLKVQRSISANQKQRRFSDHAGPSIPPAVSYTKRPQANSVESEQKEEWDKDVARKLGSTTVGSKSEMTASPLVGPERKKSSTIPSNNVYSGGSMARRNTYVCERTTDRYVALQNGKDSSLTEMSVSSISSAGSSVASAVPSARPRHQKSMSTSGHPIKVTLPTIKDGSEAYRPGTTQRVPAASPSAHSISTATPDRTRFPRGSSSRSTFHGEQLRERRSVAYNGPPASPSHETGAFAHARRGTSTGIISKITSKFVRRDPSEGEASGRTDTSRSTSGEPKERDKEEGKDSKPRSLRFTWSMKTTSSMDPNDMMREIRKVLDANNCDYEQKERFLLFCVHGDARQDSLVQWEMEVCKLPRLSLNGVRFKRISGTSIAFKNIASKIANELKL
Sequence of MELK (human) (Q14680 whole entry, looked up): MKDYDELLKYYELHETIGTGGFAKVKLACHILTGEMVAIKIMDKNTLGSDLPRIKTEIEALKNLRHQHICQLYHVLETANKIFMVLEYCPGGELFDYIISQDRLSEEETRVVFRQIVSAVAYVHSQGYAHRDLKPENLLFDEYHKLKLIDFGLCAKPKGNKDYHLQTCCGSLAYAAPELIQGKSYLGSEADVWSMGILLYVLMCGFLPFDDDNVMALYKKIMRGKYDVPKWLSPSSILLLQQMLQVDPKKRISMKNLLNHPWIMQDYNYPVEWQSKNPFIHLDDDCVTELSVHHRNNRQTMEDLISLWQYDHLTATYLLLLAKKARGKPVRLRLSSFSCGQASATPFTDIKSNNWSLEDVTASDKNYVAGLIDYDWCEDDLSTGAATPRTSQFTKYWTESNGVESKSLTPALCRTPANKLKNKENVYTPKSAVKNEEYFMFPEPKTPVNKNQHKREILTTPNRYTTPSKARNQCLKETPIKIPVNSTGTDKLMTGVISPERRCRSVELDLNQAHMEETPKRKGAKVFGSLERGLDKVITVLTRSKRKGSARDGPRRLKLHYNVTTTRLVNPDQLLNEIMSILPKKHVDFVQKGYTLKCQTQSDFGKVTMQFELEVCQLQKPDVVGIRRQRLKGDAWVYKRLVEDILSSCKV
Sequence of NUAK1 (human) (O60285 whole entry, looked up): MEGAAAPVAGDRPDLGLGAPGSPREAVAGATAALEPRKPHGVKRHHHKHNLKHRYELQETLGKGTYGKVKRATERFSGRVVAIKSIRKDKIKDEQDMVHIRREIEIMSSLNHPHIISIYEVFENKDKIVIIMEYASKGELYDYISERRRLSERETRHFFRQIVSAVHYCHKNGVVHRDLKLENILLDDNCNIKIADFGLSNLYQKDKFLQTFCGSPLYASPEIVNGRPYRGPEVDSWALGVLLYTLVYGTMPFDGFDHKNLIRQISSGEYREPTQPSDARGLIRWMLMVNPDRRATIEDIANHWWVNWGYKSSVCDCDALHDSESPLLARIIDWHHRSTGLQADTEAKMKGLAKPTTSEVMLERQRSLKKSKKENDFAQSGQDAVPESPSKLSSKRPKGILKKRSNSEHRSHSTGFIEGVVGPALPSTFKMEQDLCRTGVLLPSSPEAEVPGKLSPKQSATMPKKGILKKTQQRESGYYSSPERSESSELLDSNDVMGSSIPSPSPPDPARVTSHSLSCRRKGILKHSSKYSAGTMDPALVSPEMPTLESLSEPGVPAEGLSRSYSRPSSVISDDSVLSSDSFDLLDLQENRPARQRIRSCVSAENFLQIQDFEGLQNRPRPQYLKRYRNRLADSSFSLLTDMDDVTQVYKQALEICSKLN
Sequence of BTK (human) (Q06187 whole entry, looked up): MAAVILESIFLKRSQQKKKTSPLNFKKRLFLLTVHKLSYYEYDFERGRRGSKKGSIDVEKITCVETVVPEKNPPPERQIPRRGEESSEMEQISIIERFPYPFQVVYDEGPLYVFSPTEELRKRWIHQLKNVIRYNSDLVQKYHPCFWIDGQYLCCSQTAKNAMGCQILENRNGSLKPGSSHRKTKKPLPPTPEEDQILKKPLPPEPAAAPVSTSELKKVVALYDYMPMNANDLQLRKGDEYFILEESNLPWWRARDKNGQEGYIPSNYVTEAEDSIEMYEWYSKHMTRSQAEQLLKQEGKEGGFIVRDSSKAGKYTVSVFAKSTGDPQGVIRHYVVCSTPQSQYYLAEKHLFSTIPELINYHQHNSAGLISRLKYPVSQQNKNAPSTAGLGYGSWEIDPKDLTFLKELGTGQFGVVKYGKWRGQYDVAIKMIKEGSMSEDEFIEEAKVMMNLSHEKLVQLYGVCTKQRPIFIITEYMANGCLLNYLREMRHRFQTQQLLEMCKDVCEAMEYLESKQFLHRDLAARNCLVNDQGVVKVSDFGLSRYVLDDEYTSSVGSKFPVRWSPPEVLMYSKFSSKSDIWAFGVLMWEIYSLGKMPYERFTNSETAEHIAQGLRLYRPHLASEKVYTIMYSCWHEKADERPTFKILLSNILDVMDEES
Sequence of CSNK1D (human) (P48730 whole entry, looked up): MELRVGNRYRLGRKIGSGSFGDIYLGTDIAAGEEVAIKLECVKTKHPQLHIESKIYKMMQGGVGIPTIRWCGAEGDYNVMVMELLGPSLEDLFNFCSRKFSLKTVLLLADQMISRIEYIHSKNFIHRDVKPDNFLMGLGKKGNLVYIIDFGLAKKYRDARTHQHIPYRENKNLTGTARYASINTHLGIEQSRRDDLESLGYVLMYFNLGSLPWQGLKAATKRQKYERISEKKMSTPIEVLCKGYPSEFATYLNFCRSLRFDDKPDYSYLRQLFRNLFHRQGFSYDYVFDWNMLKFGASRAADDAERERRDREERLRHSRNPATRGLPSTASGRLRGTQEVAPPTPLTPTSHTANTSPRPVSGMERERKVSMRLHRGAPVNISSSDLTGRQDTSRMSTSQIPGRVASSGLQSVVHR
Sequence of CDK9 CCNT1 (human) (O60563 whole entry, looked up): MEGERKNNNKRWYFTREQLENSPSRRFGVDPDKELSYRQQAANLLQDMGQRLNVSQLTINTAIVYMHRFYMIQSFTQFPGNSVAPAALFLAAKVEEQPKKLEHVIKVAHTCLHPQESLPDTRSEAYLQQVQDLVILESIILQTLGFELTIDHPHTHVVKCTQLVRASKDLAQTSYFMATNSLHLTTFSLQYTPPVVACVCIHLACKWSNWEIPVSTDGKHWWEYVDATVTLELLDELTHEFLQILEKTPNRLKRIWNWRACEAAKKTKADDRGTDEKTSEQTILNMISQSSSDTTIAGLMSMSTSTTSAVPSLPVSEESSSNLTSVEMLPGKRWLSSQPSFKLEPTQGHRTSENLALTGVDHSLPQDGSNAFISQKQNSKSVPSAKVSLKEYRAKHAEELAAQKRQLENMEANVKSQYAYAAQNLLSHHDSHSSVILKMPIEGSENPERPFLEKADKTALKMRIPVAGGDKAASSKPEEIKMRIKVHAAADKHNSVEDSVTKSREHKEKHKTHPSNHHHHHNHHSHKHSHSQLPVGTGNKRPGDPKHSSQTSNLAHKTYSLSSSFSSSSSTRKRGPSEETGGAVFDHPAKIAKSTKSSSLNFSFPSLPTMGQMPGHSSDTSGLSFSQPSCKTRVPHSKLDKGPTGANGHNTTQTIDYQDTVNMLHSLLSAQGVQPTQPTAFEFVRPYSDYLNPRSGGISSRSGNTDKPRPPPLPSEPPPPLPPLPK
Sequence of CDK9 CCNT1 (human) (P50750 whole entry, looked up): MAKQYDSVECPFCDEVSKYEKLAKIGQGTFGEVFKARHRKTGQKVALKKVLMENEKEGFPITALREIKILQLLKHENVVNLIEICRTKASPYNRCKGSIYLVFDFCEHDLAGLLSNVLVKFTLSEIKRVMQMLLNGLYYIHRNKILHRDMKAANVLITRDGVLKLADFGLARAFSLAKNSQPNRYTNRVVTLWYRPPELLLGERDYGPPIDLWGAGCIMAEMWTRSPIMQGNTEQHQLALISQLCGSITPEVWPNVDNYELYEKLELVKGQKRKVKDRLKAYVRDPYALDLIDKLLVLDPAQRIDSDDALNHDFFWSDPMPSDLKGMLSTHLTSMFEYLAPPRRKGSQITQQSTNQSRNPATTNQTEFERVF
Sequence of STK33 (human) (Q9BYT3 whole entry, looked up): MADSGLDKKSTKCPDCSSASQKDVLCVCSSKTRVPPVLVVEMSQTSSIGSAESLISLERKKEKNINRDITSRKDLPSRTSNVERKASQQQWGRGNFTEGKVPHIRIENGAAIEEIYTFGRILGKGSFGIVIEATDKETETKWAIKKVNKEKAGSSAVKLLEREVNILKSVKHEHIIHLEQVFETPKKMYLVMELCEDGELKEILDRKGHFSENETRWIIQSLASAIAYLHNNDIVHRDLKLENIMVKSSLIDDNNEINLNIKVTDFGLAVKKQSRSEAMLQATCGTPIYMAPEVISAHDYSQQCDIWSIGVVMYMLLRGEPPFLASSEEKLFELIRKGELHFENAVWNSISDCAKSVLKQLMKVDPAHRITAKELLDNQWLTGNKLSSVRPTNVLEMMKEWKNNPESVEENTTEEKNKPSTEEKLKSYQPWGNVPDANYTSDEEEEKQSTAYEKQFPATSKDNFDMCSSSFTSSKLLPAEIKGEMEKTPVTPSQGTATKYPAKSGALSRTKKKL

CNc1nc(Nc2ccc(C(=O)N3CCOCC3)cc2OC)ncc1Cl
residual activity (AURKB (human); compound 1.0 µM): 83% | residual activity (AURKB (human); compound 10.0 µM): 42% | residual activity (BTK (human); compound 1.0 µM): 83% | residual activity (BTK (human); compound 10.0 µM): 88% | residual activity (CDK2 CCNA2 (human); compound 1.0 µM): 82% | residual activity (CDK2 CCNA2 (human); compound 10.0 µM): 65% | residual activity (CDK9 CCNT1 (human); compound 1.0 µM): 89% | residual activity (CDK9 CCNT1 (human); compound 10.0 µM): 83% | residual activity (CSNK1D (human); compound 1.0 µM): 44% | residual activity (CSNK1D (human); compound 10.0 µM): 89% | residual activity (CaMK1 (human); compound 1.0 µM): 85% | residual activity (CaMK1 (human); compound 10.0 µM): 66% | residual activity (EPHA2 (human); compound 1.0 µM): 93% | residual activity (EPHA2 (human); compound 10.0 µM): 97% | residual activity (EPHA4 (human); compound 1.0 µM): 100% | residual activity (EPHA4 (human); compound 10.0 µM): 94% | residual activity (EPHB3 (human)): 101% | residual activity (HIPK2 (human); compound 1.0 µM): 77% | residual activity (HIPK2 (human); compound 10.0 µM): 88% | residual activity (IRAK1 (human); compound 1.0 µM): 84% | residual activity (IRAK1 (human); compound 10.0 µM): 83% | residual activity (IRAK4 (human); compound 1.0 µM): 90% | residual activity (IRAK4 (human); compound 10.0 µM): 86% | residual activity (LCK (mouse); compound 1.0 µM): 92% | residual activity (LCK (mouse); compound 10.0 µM): 95% | residual activity (MAP3K1 (human); compound 1.0 µM): 93% | residual activity (MAP3K1 (human); compound 10.0 µM): 98% | residual activity (MAP3K5 (human)): 54% | residual activity (MAP3K9 (human); compound 1.0 µM): 38% | residual activity (MAP3K9 (human); compound 10.0 µM): 18% | residual activity (MAPK1 (human); compound 1.0 µM): 79% | residual activity (MAPK1 (human); compound 10.0 µM): 69% | residual activity (MAPK11 (human); compound 1.0 µM): 57% | residual activity (MAPK11 (human); compound 10.0 µM): 93% | residual activity (MAPK9 (human); compound 1.0 µM): 76% | residual activity (MAPK9 (human); compound 10.0 µM): 46% | residual activity (MARK1 (human); compound 1.0 µM): 91% | residual activity (MARK1 (human); compound 10.0 µM): 84% | residual activity (MARK2 (human); compound 1.0 µM): 85% | residual activity (MARK2 (human); compound 10.0 µM): 90% | residual activity (MELK (human); compound 1.0 µM): 88% | residual activity (MELK (human); compound 10.0 µM): 98% | residual activity (NUAK1 (human); compound 1.0 µM): 43% | residual activity (NUAK1 (human); compound 10.0 µM): 20% | residual activity ([1]; compound 1.0 µM): 97% | residual activity ([1]; compound 10.0 µM): 105% | residual activity (PRKAA1 or PRKAA2 (rat)): 89% | residual activity (SIK3 (human); compound 1.0 µM): 93% | residual activity (SIK3 (human); compound 10.0 µM): 82% | residual activity (STK16 (human); compound 1.0 µM): 100% | residual activity (STK16 (human); compound 10.0 µM): 97% | residual activity (STK24 (human)): 83% | residual activity (STK33 (human); compound 1.0 µM): 61% | residual activity (STK33 (human); compound 10.0 µM): 28% | residual activity (TSSK1B (human); compound 1.0 µM): 51% | residual activity (TSSK1B (human); compound 10.0 µM): 19% | residual activity (TTK (human); compound 1.0 µM): 71% | residual activity (TTK (human); compound 10.0 µM): 57% | residual activity (ULK2 (human); compound 1.0 µM): 97% | residual activity (ULK2 (human); compound 10.0 µM): 84% | residual activity (ZAP70 (human); compound 1.0 µM): 97% | residual activity (ZAP70 (human); compound 10.0 µM): 81%
